Data taken from ChEMBL document CHEMBL1201862, “PubChem BioAssay data set” (2004).
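Assay format: 96-well plates, 48-hour exposure. GI50 = concentration required for 50% inhibition of growth.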 Active and inactive are the calls of the source. No stated cut-off is given here; in the data, active = GI50 up to about 1.1 µM and inactive = higher.

How the values were obtained:
Experiment in all cases: NCI-60 cell line screen, 48 h
786-0 = test system: 786-0
A498 = test system: A498
A549 = test system: A549
ACHN = test system: ACHN
BT-549 = test system: BT-549
CAKI-1 = test system: CAKI-1
CCRF-CEM = test system: CCRF-CEM
COLO 205 = test system: COLO 205
DU-145 = test system: DU-145
EKVX = test system: EKVX
HCC 2998 = test system: HCC 2998
HCT-116 = test system: HCT-116
HCT-15 = test system: HCT-15
HL-60 = test system: HL-60
HOP-62 = test system: HOP-62
HOP-92 = test system: HOP-92
HT-29 = test system: HT-29
Hs-578T = test system: Hs-578T
IGROV-1 = test system: IGROV-1
K562 = test system: K562
KM12 = test system: KM12
LOX IMVI = test system: LOX IMVI
M14 = test system: M14
MCF7 = test system: MCF7
MDA-MB-231 = test system: MDA-MB-231
MDA-MB-435 = test system: MDA-MB-435
MDA-N = test system: MDA-N
MOLT-4 = test system: MOLT-4
Malme-3M = test system: Malme-3M
NCI-H226 = test system: NCI-H226
NCI-H23 = test system: NCI-H23
NCI-H460 = test system: NCI-H460
NCI-H522 = test system: NCI-H522
NCI/ADR-RES = test system: NCI/ADR-RES
OVCAR-3 = test system: OVCAR-3
OVCAR-4 = test system: OVCAR-4
OVCAR-5 = test system: OVCAR-5
OVCAR-8 = test system: OVCAR-8
PC-3 = test system: PC-3
RPMI-8226 = test system: RPMI-8226
RXF 393 = test system: RXF 393
SF-268 = test system: SF-268
SF-295 = test system: SF-295
SF-539 = test system: SF-539
SK-MEL-28 = test system: SK-MEL-28
SK-MEL-2 = test system: SK-MEL-2
SK-MEL-5 = test system: SK-MEL-5
SK-OV-3 = test system: SK-OV-3
SN12C = test system: SN12C
SNB-19 = test system: SNB-19
SNB-75 = test system: SNB-75
SR = test system: SR
SW-620 = test system: SW-620
T47D = test system: T47D
U-251 = test system: U-251
UACC-62 = test system: UACC-62
UO-31 = test system: UO-31
TK-10 = test system: TK-10
UACC-257 = test system: UACC-257

Cc1ccc2c(O)cc(-c3cccc4ccccc34)nc2n1
GI50 (786-0): 0.0349 µM (active)
GI50 (A498): 0.0101 µM (active)
GI50 (A549): 0.032 µM (active)
GI50 (ACHN): 0.102 µM (active)
GI50 (BT-549): 0.652 µM (active)
GI50 (CAKI-1): 0.353 µM (active)
GI50 (CCRF-CEM): 0.0251 µM (active)
GI50 (COLO 205): 0.022 µM (active)
GI50 (DU-145): 0.0392 µM (active)
GI50 (EKVX): 0.0338 µM (active)
GI50 (HCC 2998): 0.0294 µM (active)
GI50 (HCT-116): < 0.0151 µM (active)
GI50 (HCT-15): 0.0206 µM
GI50 (HL-60): < 0.01 µM (active)
GI50 (HOP-62): 1.88 µM (inactive)
GI50 (HOP-92): 0.0127 µM (active)
GI50 (HT-29): < 0.0116 µM (active)
GI50 (Hs-578T): 0.043 µM (active)
GI50 (IGROV-1): 0.0627 µM (active)
GI50 (K562): < 0.01 µM (active)
GI50 (KM12): 0.0241 µM (active)
GI50 (LOX IMVI): 0.0229 µM (active)
GI50 (M14): 0.0247 µM (active)
GI50 (MCF7): 0.0256 µM (active)
GI50 (MDA-MB-231): 0.0522 µM (active)
GI50 (MDA-MB-435): < 0.01 µM (active)
GI50 (MDA-N): < 0.01 µM (active)
GI50 (MOLT-4): 0.0698 µM (active)
GI50 (Malme-3M): < 0.01 µM (active)
GI50 (NCI-H226): 0.0398 µM (active)
GI50 (NCI-H23): 0.0352 µM (active)
GI50 (NCI-H460): 0.0342 µM (active)
GI50 (NCI-H522): < 0.0187 µM (active)
GI50 (NCI/ADR-RES): 0.0186 µM (active)
GI50 (OVCAR-3): < 0.0149 µM (active)
GI50 (OVCAR-4): 0.495 µM (active)
GI50 (OVCAR-5): 0.0375 µM (active)
GI50 (OVCAR-8): 0.032 µM (active)
GI50 (PC-3): 0.0282 µM (active)
GI50 (RPMI-8226): 0.0227 µM (active)
GI50 (RXF 393): 0.497 µM (active)
GI50 (SF-268): 0.762 µM (active)
GI50 (SF-295): 0.0193 µM (active)
GI50 (SF-539): 0.0216 µM (active)
GI50 (SK-MEL-28): 0.016 µM (active)
GI50 (SK-MEL-2): 0.0182 µM (active)
GI50 (SK-MEL-5): < 0.0117 µM (active)
GI50 (SK-OV-3): 0.021 µM (active)
GI50 (SN12C): 0.181 µM (active)
GI50 (SNB-19): 0.0445 µM (active)
GI50 (SNB-75): 0.0116 µM (active)
GI50 (SR): < 0.01 µM (active)
GI50 (SW-620): 0.0203 µM (active)
GI50 (T47D): 67.8 µM (inactive)
GI50 (U-251): 0.0166 µM (active)
GI50 (UACC-62): 0.01 µM (active)
GI50 (UO-31): 0.189 µM (active)

CC(C)(C)OC(=O)NCCCCC1NC(=O)[C@@H]2Cc3c([nH]c4ccccc34)C(C3CCCCC3)N2C1=O (some centres undefined)
GI50 (786-0): 27 µM (inactive)
GI50 (A498): > 100 µM (inactive)
GI50 (A549): 30.5 µM (inactive)
GI50 (ACHN): 45.6 µM (inactive)
GI50 (BT-549): 47.6 µM (inactive)
GI50 (CAKI-1): 56.6 µM (inactive)
GI50 (COLO 205): 20.2 µM (inactive)
GI50 (DU-145): 54.8 µM (inactive)
GI50 (EKVX): 33.7 µM (inactive)
GI50 (HCC 2998): 13.9 µM (inactive)
GI50 (HCT-116): 29.4 µM (inactive)
GI50 (HCT-15): 36 µM
GI50 (HL-60): 31.1 µM (inactive)
GI50 (HOP-62): 41.4 µM (inactive)
GI50 (HOP-92): 26 µM (inactive)
GI50 (HT-29): 28.1 µM (inactive)
GI50 (Hs-578T): 23.6 µM (inactive)
GI50 (IGROV-1): 56.5 µM (inactive)
GI50 (K562): 30.8 µM (inactive)
GI50 (KM12): 23.6 µM (inactive)
GI50 (LOX IMVI): 31.2 µM (inactive)
GI50 (M14): 22.9 µM (inactive)
GI50 (MCF7): 30.6 µM (inactive)
GI50 (MDA-MB-231): 31.6 µM (inactive)
GI50 (MDA-MB-435): 23.6 µM (inactive)
GI50 (MDA-N): 25.4 µM (inactive)
GI50 (MOLT-4): 5.28 µM (inactive)
GI50 (Malme-3M): > 100 µM (inactive)
GI50 (NCI-H226): 75 µM (inactive)
GI50 (NCI-H23): 49.8 µM (inactive)
GI50 (NCI-H460): 29.2 µM (inactive)
GI50 (NCI-H522): 45.3 µM (inactive)
GI50 (NCI/ADR-RES): 57.9 µM (inactive)
GI50 (OVCAR-3): 10.6 µM (inactive)
GI50 (OVCAR-4): 35.8 µM (inactive)
GI50 (OVCAR-5): > 100 µM (inactive)
GI50 (OVCAR-8): 43 µM (inactive)
GI50 (PC-3): 18.3 µM (inactive)
GI50 (RPMI-8226): 12.2 µM (inactive)
GI50 (RXF 393): 4.23 µM (inactive)
GI50 (SF-268): 54.1 µM (inactive)
GI50 (SF-295): 19.8 µM (inactive)
GI50 (SK-MEL-28): 85.1 µM (inactive)
GI50 (SK-MEL-2): 26 µM (inactive)
GI50 (SK-MEL-5): 33.6 µM (inactive)
GI50 (SK-OV-3): 53.7 µM (inactive)
GI50 (SN12C): 39.1 µM (inactive)
GI50 (SNB-19): 57.7 µM (inactive)
GI50 (SR): 15.2 µM (inactive)
GI50 (SW-620): 61.8 µM (inactive)
GI50 (T47D): 12.9 µM (inactive)
GI50 (TK-10): 21.8 µM (inactive)
GI50 (U-251): 31.5 µM (inactive)
GI50 (UACC-257): 35.7 µM (inactive)
GI50 (UACC-62): 32.4 µM (inactive)
GI50 (UO-31): 35.1 µM (inactive)

O=c1[nH]nc(Cc2ccccc2)n1/N=C\c1ccccc1
GI50 (786-0): 71.3 µM (inactive)
GI50 (A498): > 100 µM (inactive)
GI50 (A549): > 100 µM (inactive)
GI50 (ACHN): > 100 µM (inactive)
GI50 (BT-549): > 100 µM (inactive)
GI50 (CAKI-1): > 100 µM (inactive)
GI50 (CCRF-CEM): > 100 µM (inactive)
GI50 (COLO 205): > 100 µM (inactive)
GI50 (DU-145): > 100 µM (inactive)
GI50 (EKVX): > 100 µM (inactive)
GI50 (HCC 2998): > 100 µM (inactive)
GI50 (HCT-116): > 100 µM (inactive)
GI50 (HCT-15): > 100 µM
GI50 (HL-60): > 100 µM (inactive)
GI50 (HOP-62): 56.6 µM (inactive)
GI50 (HOP-92): 46.2 µM (inactive)
GI50 (HT-29): > 100 µM (inactive)
GI50 (Hs-578T): 76.2 µM (inactive)
GI50 (IGROV-1): 84.7 µM (inactive)
GI50 (K562): > 100 µM (inactive)
GI50 (KM12): > 100 µM (inactive)
GI50 (LOX IMVI): > 100 µM (inactive)
GI50 (MCF7): > 100 µM (inactive)
GI50 (MDA-MB-231): > 100 µM (inactive)
GI50 (MDA-MB-435): > 100 µM (inactive)
GI50 (MDA-N): > 100 µM (inactive)
GI50 (MOLT-4): > 100 µM (inactive)
GI50 (Malme-3M): > 100 µM (inactive)
GI50 (NCI-H226): > 100 µM (inactive)
GI50 (NCI-H23): > 100 µM (inactive)
GI50 (NCI-H460): > 100 µM (inactive)
GI50 (NCI-H522): > 100 µM (inactive)
GI50 (NCI/ADR-RES): > 100 µM (inactive)
GI50 (OVCAR-3): > 100 µM (inactive)
GI50 (OVCAR-4): > 100 µM (inactive)
GI50 (OVCAR-5): > 100 µM (inactive)
GI50 (OVCAR-8): 90.4 µM (inactive)
GI50 (PC-3): > 100 µM (inactive)
GI50 (RPMI-8226): > 100 µM (inactive)
GI50 (RXF 393): 24.6 µM (inactive)
GI50 (SF-268): > 10 µM (inactive)
GI50 (SF-295): 43.9 µM (inactive)
GI50 (SF-539): > 100 µM (inactive)
GI50 (SK-MEL-28): > 100 µM (inactive)
GI50 (SK-MEL-2): 31.2 µM (inactive)
GI50 (SK-MEL-5): > 100 µM (inactive)
GI50 (SN12C): > 100 µM (inactive)
GI50 (SNB-75): 32.3 µM (inactive)
GI50 (SR): > 100 µM (inactive)
GI50 (SW-620): > 100 µM (inactive)
GI50 (T47D): > 100 µM (inactive)
GI50 (TK-10): > 100 µM (inactive)
GI50 (U-251): 37.1 µM (inactive)
GI50 (UACC-257): > 100 µM (inactive)
GI50 (UACC-62): 95.5 µM (inactive)
GI50 (UO-31): > 100 µM (inactive)
